The IC50 is the concentration needed to halve the response being measured. One may read the melting point as the temperature of the solid-liquid transition.

Experimental findings from patent US6372740B1, “2-aryl-8-oxodihydropurine derivative, process for the producing the same, medicinal compositions containing the same, and intermediates thereof” (Dainippon Pharmaceutical Co., Ltd., priority 1997, dated 2002) are described below.

In one series the target is T1, BZω3 receptor (Rattus norvegicus, UniProt P16257).
T1 construct: from tissue; host or cells: rat (Wistar) kidney membrane fraction
Nature of the series: BZω3 (peripheral) benzodiazepine receptor binding assay, [3H] 4'-chlorodiazepam (Ro 5-4864). As to conditions: rat kidney membrane, [3H] Ro 5-4864 0.5 nM, 150 minutes at 0° C.; read-out: ω3 IC50. Here is the method: Experiment 1: Central (ω1,ω2) and Peripheral (ω3) Benzodiazepine Receptor Binding Assays
BZω1 and BZω2 receptor binding assays and the preparation of receptor membrane fractions therefor were carried out according to the method of Stephens, D. N. et al. [cf., J. Pharmacol. Exp. Ther., 253, 334-343 (1990)], and BZω3 receptor binding assay and the preparation of receptor membrane fraction therefor were done according to the method of Schoemaker, H. [cf, J. Pharmacol. Exp. Ther., 225, 61-69 (1983)] each with slight modification.
Receptor membrane fractions for ω1, ω2 and ω3 were prepared from the cerebellum (ω1), spinal cord (ω2) or kidney (ω3) in 7-8 week old male rats of Wistar strain, respectively, by the procedure described below.
After the cerebellum or spinal cord was homogenized with 20 volumes of ice-cold 50 mM Tris-citrate buffer (pH 7.1), the homogenate was centrifuged for 15 minutes at 40,000 g. The pellet obtained was washed 4 times by the same procedure, and frozen and stored for 24 hours at −60° C. The resulting pellet, after being thawed, washed with the buffer and centrifuged, was suspended in the buffer I for the binding assay (50 mM Tris-HCl buffer containing 120 mM NaCl, 5 mM KCl, 2 mM CaCl2 and 1 mM MgCl2; pH 7.4) and the suspension thus obtained (containing 1 g wet tissue/40 ml) was used for the BZω1 and BZω2receptor binding assays. On the other hand, the kidney was homogenized with 20 volumes of the ice-cold buffer II for the binding assay (50 mM Na-K phosphate buffer containing 100 mM NaCl; pH 7.4), and the mixture was filtered through 4 sheets of gauze, and centrifuged for 20 minutes at 40,000 g. The pellet obtained was suspended in the buffer II and the suspension (containing 1 g wet tissue/100 ml) was used for the binding assay as BZω3 receptor membrane source.
[^3H] Flumazenil (Ro 15-1788) (final concentration: 0.3 nM for ω1, and 1 nM for ω2) and flunitrazepam (final concentration: 10 μM) were used for the BZω1 or BZω2 receptor binding assays as the isotope-labeled and unlabeled ligands, respectively. For the BZω3 receptor binding assay, [^3H] 4′-chlorodiazepam (7-chloro-1,3-dihydro-1-methyl-5-(4-chlorophenyl)-2H-1,4-diazepin-2-one) (Ro 5-4864) (final concentration: 0.5 nM) and diazepam (final concentration: 100 μM) were used as the isotope-labeled and unlabeled ligands, respectively. Incubation was performed for 30 minutes at 37° C. in the BZω1 or BZω2 receptor binding assays, and for 150 minutes at 0° C. in the BZω3 receptor binding assay. The BZω1 or BZω2 receptor binding assays were carried out in the presence of bicuculline (final concentration: 100 μM).
The binding assay was performed by the following procedure. After adding each test compound at certain known concentrations, a [^3H] ligand, and the buffer I or II to each test tube, each assay was started by addition of membrane preparation (total volume of 1 ml). After incubation, the assay was terminated by filtration with suction through a Whatman GF/B glass fiber filter using a cell harvester (Brandel, USA). The filters were rapidly washed 3 times with 5 ml of ice-cold 50 mM Tris-HCl buffer (pH 7.7) for ω1 and ω2, or the buffer II for ω3, and transferred to scintillation vials containing 10 ml liquid scintillation cocktail (ACS-II, Amersham, USA). After being allowed to stand for a specific period, retained radioactivity was counted by a liquid scintillation spectrometer. Specific binding of [^3H] ligands was calculated as the difference between amounts of radioactivity bound in the presence and absence of excess unlabeled ligands. The concentration of the test compounds causing 50% inhibition of specific binding of the [3H] ligand (IC50) was determined by probit analysis.

Series [1] deals with mice (stay in light compartment). Description: Light and dark box test (anti-anxiety effect). As to conditions: Mus musculus, po, 0.5 h, male Std-ddY mice, 30 minutes before test, Dunnett test 5%, read-out: Anti-anxiety effect MED (minimum effective dose). It counts as in vivo. An excerpt: Experiment 2: Light and Dark Box Test (Anti-anxiety Effect)
Anti-anxiety effect of test compounds was examined in a box with light and dark compartments according to the method of Crawley, J. and Goodwin, F. K. [cf., Pharmacol. Biochem. Behav., 13, 167-170 (1980)] with slight modification.
Light and dark box test is a useful, simple and handy method for behaviorally and pharmacologically examining anti-anxiety effect of the drugs, by utilizing the habit of rodents such as mice and rats, etc. which prefer to stay in a dark place, and regarding as positive drug effect the increase of the relative stay of the animals in the light compartment which is an uncomfortable place for the animals. A number of drugs such as cholecystokinin B type receptor antagonists and benzodiazepine drugs, show positive effect in this test.
Light and dark box test was carried out using the test box device (35×17×15 cm) which comprises: a light compartment (20×17×15 cm) consisting of transparent acrylic plates and highly illuminated by an incandescent lamp (1,700 lux); a dark compartment (15×17×15 cm) being made of black acrylic plates connected to the light compartment; and at the boundary of compartments, an opening (4.4×5.0 cm) in which mice can go through freely between two compartments.
Male mice of Std-ddY strain weighing 25-30 g were used in a group of 10. Each trial was started by placing a mouse in the center of the light compartment 30 minutes after oral administration of a test compound, and the time spent by the mouse in the light compartment during a 5 minute observation period was measured, and the rate of the stay of mice in the light compartment to the whole time spent in the experiment was calculated (rate of light compartment stay, %).
The anti-anxiety effect of the test compound was represented by the minimum effective dose (MED) at which the increasing rate of the relative stay in the light compartment was regarded as statistically significant (Dunnett test, significance level: 5%). 4.

The compound `CCCN(CCC)C(=O)Cn1c(=O)[nH]c2cnc(-c3ccc([N+](=O)[O-])cc3)nc21` [Example 83] had a melting point of 256 to 258 °C. In addition, the IC50 at BZω3 receptor was 1.3 nM.

The compound `CN(C(=O)Cn1c(=O)n(C)c2cnc(-c3ccccc3)nc21)c1ccccc1` [Example 156] yielded a melting point of 202 to 203 °C. The IC50 at BZω3 receptor was found to be 0.67 nM.

`CCn1c(=O)n(CC(=O)N(C)c2cccc(Cl)c2)c2nc(-c3ccccc3)ncc21` [Example 161] registered a melting point of 205 to 207 °C. The IC50 at BZω3 receptor is 1.1 nM.

`CCN(C(=O)Cn1c(=O)n(C)c2nc(-c3cccs3)ncc21)c1ccccc1` [Example 39] returned a melting point of 236 to 238 °C. The IC50 at BZω3 receptor came out at 1.3 nM.

`CCn1c(=O)n(CC(=O)N(C)Cc2ccccc2)c2nc(-c3ccccc3)ncc21` [Example 140] displayed a melting point of 147 to 149 °C. Besides, the IC50 at BZω3 receptor is 0.87 nM.

The compound `CCCN(C(=O)Cn1c(=O)n(CC)c2cnc(-c3ccccc3)nc21)c1ccccc1` [Example 170] showed a melting point of 151 to 152 °C. Further, the IC50 at BZω3 receptor worked out at 1.8 nM.

Compound `CN(Cc1ccccc1)C(=O)Cn1c(=O)n(C)c2cnc(-c3ccc(Cl)cc3)nc21` [Example 137, N-benzyl-7,8-dihydro-N-methyl-7-methyl-8-oxo-2-(4-chlorophenyl)-9H-purin-9-acetamide] returned a melting point of 241 to 242 °C. Besides, the IC50 at BZω3 receptor worked out at 1.3 nM. In series [1], the minimal effective dose was in the range of 1 to 3 µg/kg.

Turning to `CCCN(CCC)C(=O)Cn1c(=O)n(CC)c2cnc(-c3ccc(Cl)cc3)nc21` [Example 116], the melting point lay in the range of 158 to 159 °C. In addition, the IC50 on BZω3 receptor was 2.1 nM. Besides, the minimal effective dose in series [1] came to 10 µg/kg.

As for `CCN(C(=O)Cn1c(=O)n(C)c2nc(-c3ccc(OC)cc3)ncc21)c1ccccc1` [Example 13], the melting point lay within 179 to 181 °C. In addition, the IC50 at BZω3 receptor came to 2.9 nM.

Turning to `CCN(C(=O)Cn1c(=O)[nH]c2cnc(-c3ccccc3)nc21)c1ccccc1` [Example 103], the melting point is 237 to 238 °C. The IC50 on BZω3 receptor was determined as 0.8 nM.

On to `CCN(Cc1ccccc1)C(=O)Cn1c(=O)[nH]c2cnc(-c3ccc(OC)cc3)nc21` [Example 94], for which the melting point lay within 216 to 218 °C. Besides, the IC50 on BZω3 receptor is 2.7 nM.

Turning to `CCCN(CCC)C(=O)Cn1c(=O)n(C)c2cnc(-c3ccc(OC)cc3)nc21` [Example 114], the melting point was in the range of 157 to 158 °C. Moreover, the IC50 at BZω3 receptor was 0.97 nM.

Consider `CCCN(CCC)C(=O)Cn1c(=O)n(C)c2cnc(-c3ccc(F)cc3)nc21` [Example 113], for which the melting point fell in the range of 140 to 141 °C. The IC50 at BZω3 receptor worked out at 0.97 nM.

As to `CN(Cc1ccccc1)C(=O)Cn1c(=O)n(C)c2cnc(-c3ccccc3)nc21` [Example 136, N-benzyl-7,8-dihydro-N-methyl-7-methyl-8-oxo-2-phenyl-9H-purin-9-acetamide], the melting point lay within 169 to 170 °C. In addition, on BZω3 receptor, the IC50 came to 0.66 nM.

In turn, `COc1ccc(-c2ncc3c(n2)n(C)c(=O)n3CC(=O)N(C)c2ccccc2)cc1` [Example 6] showed a melting point of 176 to 178 °C. For the same compound, the IC50 at BZω3 receptor worked out at 2 nM.

Take `CN(C(=O)Cn1c(=O)[nH]c2cnc(-c3ccccc3)nc21)c1cccc(Cl)c1` [Example 99]: the melting point was in the range of 234 to 236 °C. Moreover, the half-maximal inhibitory concentration (IC50) on BZω3 receptor turned out to be 1.4 nM.

The compound `CCn1c(=O)n(CC(=O)N(C)c2ccccc2)c2nc(-c3cccnc3)ncc21` [Example 172] displayed a melting point of 199 to 200 °C. On BZω3 receptor, the IC50 is 3.5 nM.

Consider `CCN(C(=O)Cn1c(=O)n(C)c2nc(-c3ccsc3)ncc21)c1ccccc1` [Example 40], for which the melting point lay in the range of 226 to 228 °C. For the same compound, the half-maximal inhibitory concentration (IC50) at BZω3 receptor came to 1.6 nM.

On to `CCCN(CCC)C(=O)Cn1c(=O)n(C)c2nc(-c3ccc(F)cc3)ncc21` [Example 29], for which the melting point was 154 to 155 °C. The IC50 on BZω3 receptor was 4.5 nM.

`CCN(C(=O)Cn1c(=O)n(C)c2nc(-c3cccc(Cl)c3)ncc21)c1ccccc1` [Example 10] yielded a melting point of 195 to 196 °C. Besides, the IC50 at BZω3 receptor was 1 nM.

`CCN(Cc1ccc(F)cc1)C(=O)Cn1c(=O)n(C)c2nc(-c3ccccc3)ncc21` [Example 74] showed a melting point of 166 to 167 °C. The half-maximal inhibitory concentration (IC50) on BZω3 receptor is 0.99 nM.

The compound `CN(C(=O)Cn1c(=O)n(C)c2nc(-c3ccc(Cl)cc3)ncc21)c1ccccc1` [Example 4] displayed a melting point of 188 to 190 °C. The half-inhibitory concentration (IC50) on BZω3 receptor was determined as 1.6 nM.

As to `CN(Cc1ccccc1F)C(=O)Cn1c(=O)n(C)c2nc(-c3ccccc3)ncc21` [Example 71], the melting point is 198 to 199 °C. The IC50 on BZω3 receptor was found to be 0.43 nM.

On to `CCn1c(=O)n(CC(=O)N(C)c2ccc(Cl)cc2)c2nc(-c3ccccc3)ncc21` [Example 162], for which the melting point was in the range of 173 to 175 °C. In addition, the IC50 on BZω3 receptor worked out at 1.1 nM.

With `COc1ccc(N(C)C(=O)Cn2c(=O)[nH]c3cnc(-c4ccccc4)nc32)cc1` [Example 101], the melting point was 238 to 240 °C. Moreover, at BZω3 receptor, the IC50 was determined as 1.3 nM.

The compound `CN(Cc1ccccc1)C(=O)Cn1c(=O)n(C)c2nc(-c3ccc(Cl)cc3)ncc21` [Example 49] gave a melting point of 210 to 211 °C. Besides, the IC50 at BZω3 receptor worked out at 1.4 nM.

The compound `COc1ccc(CN(C)C(=O)Cn2c(=O)n(C)c3nc(-c4ccccc4)ncc32)cc1` [Example 73] had a melting point of 174 to 176 °C. The IC50 on BZω3 receptor is 1.7 nM.

In the case of `CCN(C(=O)Cn1c(=O)n(C)c2cnc(-c3ccccc3)nc21)c1ccccc1` [Example 166], the melting point lay within 180 to 181 °C. Besides, on BZω3 receptor, the IC50 was determined as 1.2 nM.

`CCN(Cc1ccccc1)C(=O)Cn1c(=O)n(CC)c2cnc(-c3ccc(Cl)cc3)nc21` [Example 151] showed a melting point of 157 to 158 °C. The IC50 at BZω3 receptor amounted to 2.3 nM.

The compound `CN(C(=O)Cn1c(=O)n(C)c2nc(-c3cccnc3)ncc21)c1ccccc1` [Example 37] yielded a melting point of 209 to 211 °C. Besides, the half-inhibitory concentration (IC50) on BZω3 receptor stood at 2.8 nM.
